US20170320939A1, “COLL2-1 PEPTIDE AND ITS NITRATED FORM AS THERAPEUTIC TARGETS FOR OSTEOARTHRITIS TREATMENT” (Université de Liège, priority 2014, published 2017)

How the values were obtained:
[1] = tested on: OA synovial fibroblast cells; experiment: Intracellular GSH assay in OA synovial fibroblast cells; assay type: cell-based, human; settings: Coll2-1 at 0.45 and 4.5 nmol, 24 hours
Protocol: (§1) 1.1 Patients. Synovial tissue samples were obtained from 10 patients (8 women, 2 man; mean age 70 +/−6 years) with osteoarthritis (OA) of the knee at the time of total knee joint replacement surgery. All the subjects provided their informed consent.
1.2 Isolation and culture of synovial cells. Synovium biopsies were digested is with collagenase from Clostridium histolyticum, Type IA (1 mg/ml) (Sigma-Aldrich, Saint-Louis, USA) and 0.25% trypsin (Sigma Aldrich, Saint Louis, USA) with 0.68 mM EDTA in Tris buffer 0.1M, pH 7.4 in complete medium (CM) (DMEM (Dulbecco's Modified Eagle's Medium) Low Glucose supplemented with 10 mM HEPES, 100 U/ml penicillin, 100 μg/ml streptomycin, 2 mM glutamine and 10% fetal calf serum (Lonza, Verviers, Belgium)) for 1 hour at 37° C. The cells suspensions were passed through a 70-μm filter to remove any undigested tissue. The filtered cells suspensions were then collected by centrifugation at 800 g and were cultured in culture flasks. After 24 hours, medium was changed to eliminate non adherent cells. Synovial fibroblasts cells (SFC) were used after three passages. […]
1.6 GSH assay. Levels of intracellular GSH were assessed by monoclorobimane staining. […] The fluorescence intensities were measured at […] using excitation and emission wavelengths of 380 and 485 nm, respectively. The intracellular GSH level was expressed as arbitrary units of fluorescence intensity.

TSP1 = TSP1 mRNA expression by Real Time PCR in OA synovial fibroblast cells; assay type: cell-based, human; settings: increasing concentrations: Coll2-1 (0.45 and 4.5 nmol) or Coll2-1NO2 (4 and 40 pmol), 24 hours
Protocol: (§2) 1.3 Treatment of synovial fibroblast cells. Cells were seeded into a six-well plate at the density of 2×10^5 cells/well in 2 ml of CM. When the cells reached confluence, the CM was replaced with 1% serum medium for 24 h to keep the cells quiescent. Cells were incubated for 24 hours with or without peptides Coll2-1 (^108HRGYPGLDG^116; 0.45 and 4.5 nmol) or Coll2-1NO2 (^108HRGYPGLDG-NO2^116; 4 and 40 pmol) at a range of concentrations found in the blood of osteoarthritic patients.
(§3) 1.4 RNA extraction and Real Time Reverse Transcriptase-Polymerase Chain Reaction (RT PCR). Total RNA were extracted using the RNeasy Mini Kit (Qiagen, Netherlands) and were reverse transcribed with SuperScript III Reverse Transcriptase (Invitrogen, Belgium) according to the manufacturer's instructions. The cDNAs were quantified by real-time quantitative PCR using the Rotor Gene instrument (Qiagen, Venlo, Netherlands) and the SYBR Premix Ex Taq kit (Takara, Verviers, Belgium). The level of gene expression was determined by interpolation with a standard curve. To standardize mRNA levels, HPRT, a house keeping gene, was amplified as an internal control. The oligonucleotide primers sequences were as follow: HPRT forward, 5′-[…]-3′ (SEQ ID NO: 2); HPRT reverse, 5′-TGCCTGACCAAGGAAAGC-3′ (SEQ ID NO: 3); TSP-1 forward, 5′-CAGACCGCATTGGAGATAC-3′ (SEQ ID NO: 4); TSP-1 reverse, 5′-[…]-3′ (SEQ ID NO: 5); VEGF forward, 5′-TGCCTTGCTGCTCTAC-3′ (SEQ ID NO: 6); VEGF reverse, 5′-CACACAGGATGGCTTGAA-3′ (SEQ ID NO: 7); IL-6 forward, 5′-AAACAAATTCGGTACATCCTCG-3′ (SEQ ID NO: 8); IL-6 reverse, 5′-CCA GGC AAG TCT CCT CAT-3′ (SEQ ID NO: 9); IL-8 forward, 5′-GGAACCATCTCACTGTGTGTAA-3′ (SEQ ID NO: 10); IL-8 reverse, 5′-TGGAAAGGTTTGGAGTATGTCT-3′ (SEQ ID NO: 11).

IL-8 = IL-8 mRNA expression by Real Time PCR in OA synovial fibroblast cells; assay type: cell-based, human; settings: 24 hours
Protocol: as §2, §3

NF-κB = NF-κB activation, Western blotting of phospho-p65 and phospho-IκBα; assay type: cell-based; settings: in the presence of Coll2-1
Protocol: Western blotting. Cells were collected at 4° C. and lysed on ice in 50 μl of buffer (25 mM Hepes, 150 mM NaCl, 0.5% Triton X-100, 10% glycerol, and 1 mM dithiothreitol) containing protease and phosphatase inhibitors. After incubation at 4° C. for 30 minutes, lysates were then centrifugated at 14,000 g for 30 minutes at 4° C. to remove insoluble debris. Protein concentrations were determined using BCA assay. Total protein extracts (10 μg) were fractioned by electrophoresis on a polyacrylamide gel (10%) and transferred onto a PVDF membrane. Membrane were blocked for 1 h in TBS-Tween containing 2% bovine serum albumin (phosphor-NF-κB p65 and phospho-IκBα). Membranes were then incubated overnight at 4° C. with primary antibodies. Anti-rabbit phospho-NF-κB p65 (1:1000 dilution), anti-rabbit phospho-IκBα (1:1000 dilution) were used. Horse-radish peroxidase (HRP)-linked anti-rabbit IgG antibody (1:2000 dilution) was used as secondary antibody.

[2] = tested on: OA synovial fibroblast cells; experiment: Intracellular H2O2 production in OA synovial fibroblast cells; assay type: cell-based, human
Protocol: as §1
1.2 Isolation and culture of synovial cells. Synovium biopsies were digested is with collagenase from Clostridium histolyticum, Type IA (1 mg/ml) (Sigma-Aldrich, Saint-Louis, USA) and 0.25% trypsin (Sigma Aldrich, Saint Louis, USA) with 0.68 mM EDTA in Tris buffer 0.1M, pH 7.4 in complete medium (CM) (DMEM (Dulbecco's Modified Eagle's Medium) Low Glucose supplemented with 10 mM HEPES, 100 U/ml penicillin, 100 μg/ml streptomycin, 2 mM glutamine and 10% fetal calf serum (Lonza, Verviers, Belgium)) for 1 hour at 37° C. The cells suspensions were passed through a 70-μm filter to remove any undigested tissue. The filtered cells suspensions were then collected by centrifugation at 800 g and were cultured in culture flasks. After 24 hours, medium was changed to eliminate non adherent cells. Synovial fibroblasts cells (SFC) were used after three passages.
as §2
1.5 Intracellular H2O2 and O2^∘^− productions. Levels of intracellular superoxide anion (O2^∘^−) and hydrogen peroxide (H2O2) were assessed spectrofluorimetrically by oxidation of specific probes: dihydroethidium (Molecular Probes, Leiden, The Netherlands) and H2DCFH-DA (Molecular Probes, Leiden, The Netherlands) respectively. Synovial cells seeded on 96-well plates (8×10^3 cells per well) were washed once with phosphate-buffered saline and then incubated with 50 μL of phosphate-buffered saline containing either 250 μM dihydroethidium or 200 μM H2DCFH-DA. The fluorescence intensity was measured every hour for 6 hours. The levels of O2^∘^− or H2O2 are expressed in arbitrary unit/living cell. The numbers of adherent cells were measured by crystal violet assay.

IL-6 = IL-6 mRNA expression by Real Time PCR in OA synovial fibroblast cells; assay type: cell-based, human; settings: increasing concentrations of peptide, 24 hours
Protocol: as §2
1.4 RNA extraction and Real Time Reverse Transcriptase-Polymerase Chain Reaction (RT PCR). Total RNA were extracted using the RNeasy Mini Kit (Qiagen, Netherlands) and were reverse transcribed with SuperScript III Reverse Transcriptase (Invitrogen, Belgium) according to the manufacturer's instructions. The cDNAs were quantified by real-time quantitative PCR using the Rotor Gene instrument (Qiagen, Venlo, Netherlands) and the SYBR Premix Ex Taq kit (Takara, Verviers, Belgium). The level of gene expression was determined by interpolation with a standard curve. To standardize mRNA levels, HPRT, a house keeping gene, was amplified as an internal control. […]

Question: With HRGYPGLDG [Coll2-1] as the sequence, how does the “intracellular level of GSH” value [1] read?
Answer: significant decrease

Question: And the TSP1 expression (TSP1)?
Answer: decrease

Question: What about the IL8 gene expression (IL-8; Coll2-1 at 0.45 nmol) of the same sequence?
Answer: dose-dependently increased

Question: And the IL8 gene expression (IL-8; Coll2-1 at 4.5 nmol)?
Answer: dose-dependently increased

Question: And the IL-8 expression (IL-8; increasing concentrations: Coll2-1 (0.45 and 4.5 nmol) or Coll2-1NO2 (4 and 40 pmol))?
Answer: increased

Question: What about the IκBα degradation (NF-κB) of the same sequence?
Answer: induced

Question: What about the “phosphorylation of p65 NF-κB subunit” value (NF-κB) of the same sequence?
Answer: observed the phosphorylation

Question: What about the “intracellular production of H2O2” value ([2]; Coll2-1 at 4.5 nmol, 24 hours) of the same sequence?
Answer: significantly increased

Question: And the H2O2 production ([2]; increasing doses of Coll2-1 peptide)?
Answer: increase

Question: And the IL-6 expression (IL-6)?
Answer: increased
